Source: patent publication US8299048B2, “Hexahydrocyclopentyl[f]indazole sulfonamides and derivatives thereof as selective glucocorticoid receptor modulators” (Merck Sharp & Dohme Corp., priority 2008, dated 2012)

Experiments:
human GR [1] = target: T1, human GR (Homo sapiens, UniProt P04150); assay: Trans-Activation Modulation of Glucocorticoid Receptor (GRAMMER), MMTV-LUC reporter, agonist mode; format: cell-based; design: endogenous in cells; details: for Emax: A549, A549 cells, maximum activity, read-out: Transactivation A549 Cells GRAMMER Emax; for EC50: A549 cells, inflection point, read-out: Transactivation A549 Cells GRAMMER IP
T1 sequence (P04150 1-777): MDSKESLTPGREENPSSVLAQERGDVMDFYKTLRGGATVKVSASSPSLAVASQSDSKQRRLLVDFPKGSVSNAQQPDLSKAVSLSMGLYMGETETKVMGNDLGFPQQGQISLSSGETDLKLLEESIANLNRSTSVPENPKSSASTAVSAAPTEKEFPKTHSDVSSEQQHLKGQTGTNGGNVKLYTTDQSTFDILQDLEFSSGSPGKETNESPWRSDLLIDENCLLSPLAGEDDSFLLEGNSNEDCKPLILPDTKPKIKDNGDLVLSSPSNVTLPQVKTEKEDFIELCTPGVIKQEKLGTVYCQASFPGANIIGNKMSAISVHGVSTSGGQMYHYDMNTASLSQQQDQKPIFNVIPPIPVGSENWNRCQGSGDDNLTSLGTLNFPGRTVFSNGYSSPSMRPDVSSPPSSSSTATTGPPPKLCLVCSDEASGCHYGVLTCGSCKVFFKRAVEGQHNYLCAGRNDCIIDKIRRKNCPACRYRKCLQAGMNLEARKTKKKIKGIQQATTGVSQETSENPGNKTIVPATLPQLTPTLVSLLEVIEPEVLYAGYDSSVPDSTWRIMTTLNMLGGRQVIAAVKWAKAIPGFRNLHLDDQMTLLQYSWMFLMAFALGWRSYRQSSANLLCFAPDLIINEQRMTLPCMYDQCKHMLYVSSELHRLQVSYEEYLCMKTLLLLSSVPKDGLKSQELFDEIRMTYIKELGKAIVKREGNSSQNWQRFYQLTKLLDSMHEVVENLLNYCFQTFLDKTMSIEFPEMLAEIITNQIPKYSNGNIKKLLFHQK
Description: This assay assesses the ability of test compounds to control transcription from the MMTV-LUC reporter gene in lung adenocarcinoma A549 cells or MDA-MB-453 cells, a human breast cancer cell line that naturally expresses the human GR. The assay measures induction of a modified MMTV LTR/promoter linked to the LUC reporter gene.
The routine transient assay consists of plating 7,000-25,000 cells/well of a white, clear-bottom 96-well plate. Alternatively, 384-well plates can be used at a cell concentration of 10,000/well. The media that the cells are plated in is “exponential growth medium” which consists of phenol red-free RPMI1640 containing 10% FBS, 4 mM L-glutamine, 20 mM HEPES, 10 ug/mL human insulin, and 20 ug/mL gentamicin. Incubator conditions are 37° C. and 5% CO2. The transfection is done in batch mode. The cells are trypsinized and counted to the right cell number in the proper amount of fresh media. It is then gently mixed with the FuGene6/DNA mix and plated onto the 96 or 384-well plate, all the wells receive 100 uL or 40 uL, respectively, of medium+lipid/DNA complex then incubated 37° C. overnight. The transfection cocktail consists of serum-free OptiMEM, FuGene6 reagent and DNA. The manufacturer's (Roche Biochemical) protocol for cocktail setup is as follows: The lipid to DNA ratio is approximately 2.5:1 and the incubation time is 20 min at room temperature. Sixteen to 24 hours after transfection, the cells are treated with dexamethasone to a final concentration of 10 nM as well as the compound of interest, such that final DMSO (vehicle) concentration is equal to or less than 1%. Each plate also contains samples that are treated with 10 nM dexamethasone alone, which is used as the 100% activity control. The cells are exposed to the compounds for 24 hours. After 24 hours, the cells are lysed by a Promega cell culture lysis buffer for approximately 30 min and then the luciferase activity in the extracts is assayed in the 96-well format luminometer. In 384-well format, Steady-Glo (Promega) or Steady-Lite (PerkinElmer) can be used by adding an equal volume of reagent to the media present in each well. Activity induced by 10 nM dexamethasone alone is set at 100% activity. Antagonist activity is calculated by determining the decrease in dexamethasone-induced activity in response to compound treatment relative to samples that were treated with dexamethasone alone. […] This transactivation assay can be performed in an agonist and antagonist mode to identify these different activities.

human GR [2] = target: T1, human GR; assay: Transrepression Assay (GITAR), TNFα-β-lactamase reporter in U937 cells; format: cell-based; design: U937 cells contain an endogenous glucocorticoid receptor (GR); endogenous in cells; host or cells: U937 cells stably transfected with the TNF-alpha promoter/beta-lactamase reporter; details: for GITAR > GRAMM % SEP: GITAR Emax minus GRAMMER Emax; for EC50: U937 cells, inflection point, read-out: Transrepression U937 Cells GITAR IP
Description: This assay assesses the ability of test compounds to control transcription from the TNFα-β-lactamase reporter gene in U937 cells, a human myelomonocytic leukemia cell line that naturally expresses the human GR. The assay measures compound dependent-repression of the TNFa promoter linked to a reporter gene.
The human U937 cells that had been stablely transfected with the TNF-α promoter driving β-lactamase are used for this assay. U937 cells contain an endogenous glucocorticoid receptor (GR). Cells are maintained in RPMI 1640 Growth medium (Gibco Cat#11875-093) containing 25 mM HEPES, 10% FBS, 2 mM L-Glutamine, 1 mM Sodium pyruvate, 25 μg/ml Gentamicin (Gibco Cat#15710-064), 1:1000 2-Mercaptoethanol (Gibco Cat#21985-023) and 0.8 mg/ml G418 (Gibco Cat#10131-027). The density of the cells in the flask needs to be about 1×10^6−3×10^6/ml at the time of harvest. Usually, the cells are split to 1.2˜1.4×10^5/ml (1:10) 3 days prior to the assay. 50,000 cells/well are plated in 96 well black-walled plates the day of assay. Test compounds are added 10 μL/well, and cells are incubated at 37° C. for 30˜45 min. For assaying compounds, first dilute 1:10 in DMSO to make 1 mM, then further dilute 1:100 in medium to make 10× stock prior to adding to the cells. Add 50 ng/mlPMA (Sigma, cat# P8139) 10 μL/well to a final concentration 5 ng/ml, and 1 μg/ml LPS (Sigma, cat# L4130) 10 μL/well to a final concentration 100 ng/ml. Incubate cells at 37° C. overnight for ˜18 hr. PMA is stored frozen as 100 μg/ml stock in DMSO. Dilute 1:10 in DMSO for a working stock of 10 μg/ml and store at −20 C. For assaying, dilute the 10 μg/ml working stock 1:200 in medium to make a 10× solution (50 ng/ml). Store frozen LPS at 1 mg/ml in PBS, dilute 1:1000 in medium to make 10× (1 μg/ml) for the assay. Add 6× loading buffer (CCF2-AM) 20 μL/well, and incubate at room temperature for 70˜90 min. […] The activity repressed by 100 nM dexamethasone alone is set as 100% activity.

[3] = U-937, U937 cells, maximum activity, read-out: Transrepression U937 Cells GITAR Emax
[4] = U-937, activity repressed by 100 nM dexamethasone alone set as 100%, read-out: maximal activity in the transrepression (GITAR) assay

Compound	Emax (human GR [1])	EC50 (human GR [1])	GITAR > GRAMM % SEP (human GR [2])	EC50 (human GR [2])	Emax (human GR [2]; [3])	Emax (human GR [2]; [4])
C[C@]12Cc3cnn(-c4ccc(F)cc4)c3C=C1CC[C@@H]2CN(CCc1ccccc1F)S(=O)(=O)c1ccccc1Cl [Example 100, 2-chloro-N-[2-(2-fluorophenyl)ethyl]-N-{[(4αR,5S)-1-(4-fluorophenyl)-4α-methyl-1,4,4α,5,6,7-hexahydrocyclopenta[f]indazol-5-yl]methyl}benzenesulfonamide]	64.9%	397 nM	14.2%	192 nM	79.1%	> 5%
CC(C)CS(=O)(=O)N(CCc1ccccc1F)C[C@H]1CCC2=Cc3c(cnn3-c3ccc(F)cc3)C[C@@]21C [Example 103, N-[2-(2-fluorophenyl)ethyl]-N-{[(4αR,5S)-1-(4-fluorophenyl)-4α-methyl-1,4,4α,5,6,7-hexahydrocyclopenta[f]indazol-5-yl]methyl}-2-methylpropane-1-sulfonamide]	68.8%	367 nM	7.7%	177 nM	76.5%	> 5%
CCCCCCCCS(=O)(=O)N(CCc1ccccc1F)C[C@H]1CCC2=Cc3c(cnn3-c3ccc(F)cc3)C[C@@]21C [Example 104, N-[2-(2-fluorophenyl)ethyl]-N-{[(4αR,5S)-1-(4-fluorophenyl)-4α-methyl-1,4,4α,5,6,7-hexahydrocyclopenta[f]indazol-5-yl]methyl}octane-1-sulfonamide]	9.2%	258 nM	1.0%	153 nM	10.2%	> 5%
C[C@]12Cc3cnn(-c4ccc(F)cc4)c3C=C1CC[C@@H]2CN(CCc1ccccc1F)S(=O)(=O)Cc1cccc(Cl)c1 [Example 106, 1-(3-chlorophenyl)-N-[2-(2-fluorophenyl)ethyl]-N-{[(4αR,5S)-1-(4-fluorophenyl)-4α-methyl-1,4,4α,5,6,7-hexahydrocyclopenta[f]indazol-5-yl]methyl}methanesulfonamide]	82.8%	328 nM	2.5%	44.1 nM	85.3%	> 5%
C[C@]12Cc3cnn(-c4ccc(F)cc4)c3C=C1CC[C@@H]2CN(CCc1ccccc1F)S(=O)(=O)Cc1ccccc1Cl [Example 107, 1-(2-chlorophenyl)-N-[2-(2-fluorophenyl)ethyl]-N-{[(4αR,5S)-1-(4-fluorophenyl)-4α-methyl-1,4,4α,5,6,7-hexahydrocyclopenta[f]indazol-5-yl]methyl}methanesulfonamide]	73%	395 nM	11.4%	54.1 nM	84.4%	> 5%

Molecules with a lower EC50 (human GR [1]), results first:

Emax (human GR [1])	EC50 (human GR [1])	GITAR > GRAMM % SEP (human GR [2])	EC50 (human GR [2])	Emax (human GR [2]; [3])	Emax (human GR [2]; [4])	Compound
76.7%	239 nM	13.2%	64.3 nM	89.9%	> 5%	Cn1cc(S(=O)(=O)N(CCc2ccccc2F)C[C@H]2CCC3=Cc4c(cnn4-c4ccc(F)cc4)C[C@@]32C)c(C(F)(F)F)n1 [Example 98, N-[2-(2-fluorophenyl)ethyl]-N-{[(4αR,5S)-1-(4-fluorophenyl)-4α-methyl-1,4,4α,5,6,7-hexahydrocyclopenta[f]indazol-5-yl]methyl}-1-methyl-3-(trifluoromethyl)-1H-pyrazole-4-sulfonamide]
62.1%	236 nM	24.6%	64.4 nM	86.8%	> 5%	C[C@]12Cc3cnn(-c4ccc(F)cc4)c3C=C1CC[C@@H]2CN(CCc1ccccc1F)S(=O)(=O)c1ccccc1C(F)(F)F [Example 99, N-[2-(2-fluorophenyl)ethyl]-N-{[(4αR,5S)-1-(4-fluorophenyl)-4α-methyl-1,4,4α,5,6,7-hexahydrocyclopenta[f]indazol-5-yl]methyl}-2-(trifluoromethyl)benzenesulfonamide]
78.3%	203 nM	8.2%	95.1 nM	86.5%	> 5%	CCCCS(=O)(=O)N(CCc1ccccc1F)C[C@H]1CCC2=Cc3c(cnn3-c3ccc(F)cc3)C[C@@]21C [Example 102, N-[2-(2-fluorophenyl)ethyl]-N-{[(4αR,5S)-1-(4-fluorophenyl)-4α-methyl-1,4,4α,5,6,7-hexahydrocyclopenta[f]indazol-5-yl]methyl}butane-1-sulfonamide]
85.5%	193 nM	3.3%	109 nM	88.8%	> 5%	C[C@]12Cc3cnn(-c4ccc(F)cc4)c3C=C1CC[C@@H]2CN(CCc1ccccc1F)S(=O)(=O)Cc1ccc(Cl)cc1Cl [Example 105, 1-(2,4-dichlorophenyl)-N-[2-(2-fluorophenyl)ethyl]-N-{[(4αR,5S)-1-(4-fluorophenyl)-4α-methyl-1,4,4α,5,6,7-hexahydrocyclopenta[f]indazol-5-yl]methyl}methanesulfonamide]
